Assays:
Assay type in all cases: in vivo
[1] = tested on: wheat (Triticum aestivum); experiment: Test B pre-/postemergence plant response
How it was run: (§1)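 Greenhouse pots, loam/sand soil; compound formulated with surfactant in non-phytotoxic solvent. Preemergence soil spray and postemergence spray at 1–2 leaf stage run simultaneously. Visual injury, 0–100, about 10 days post-treatment.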

[2] = tested on: giant foxtail (Setaria faberii); experiment: Test B pre-/postemergence plant response
How it was run: as §1

corn (Zea mays) [3] = experiment: Test B pre-/postemergence plant response
How it was run: as §1

[4] = tested on: pigweed (Amaranthus retroflexus); experiment: Test B pre-/postemergence plant response
How it was run: as §1

[5] = tested on: barnyardgrass (Echinochloa crus-galli); experiment: Test B pre-/postemergence plant response
How it was run: as §1

[6] = tested on: morningglory (Ipomoea coccinea); experiment: Test D pre-/postemergence plant response
How it was run: (§2)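 Preemergence: seeds in loam/sand blend treated with test chemicals in non-phytotoxic solvent with surfactant; postemergence: plants at 2–18 cm (1- to 4-leaf stage) in peat-based medium sprayed likewise. Greenhouse 13 to 15 days, then visual rating vs controls, 0 (no effect) to 100 (complete control).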

[7] = tested on: ragweed (common ragweed, Ambrosia elatior); experiment: Test D pre-/postemergence plant response
How it was run: as §2

[8] = tested on: yellow nutsedge (Cyperus esculentus); experiment: Test D pre-/postemergence plant response
How it was run: as §2

corn (Zea mays) [9] = experiment: Test D pre-/postemergence plant response
How it was run: as §2

[10] = tested on: Italian ryegrass (Lolium multiflorum); experiment: Test D pre-/postemergence plant response
How it was run: as §2

[11] = tested on: winter wheat (Triticum aestivum); experiment: Test D pre-/postemergence plant response
How it was run: as §2

[12] = tested on: lambsquarters (Chenopodium album); experiment: Test D pre-/postemergence plant response
How it was run: as §2

soybean (Glycine max) = experiment: Test D pre-/postemergence plant response
How it was run: as §2

[13] = tested on: large (Lg) crabgrass (Digitaria sanguinalis); experiment: Test D pre-/postemergence plant response
How it was run: as §2

[14] = tested on: galium (catchweed bedstraw, Galium aparine); experiment: Test D pre-/postemergence plant response
How it was run: as §2

[15] = tested on: waterhemp (common waterhemp, Amaranthus rudis); experiment: Test D pre-/postemergence plant response
How it was run: as §2

[16] = 125 g ai/ha, postemergence, 0 to 100 scale, 0 no effect, 100 complete control
[17] = Postemergence, 500 g ai/ha, 0 to 100 scale (0 no effect, 100 complete control)
[18] = Preemergence, 125 g ai/ha, 0 to 100 scale (0 no effect, 100 complete control)
[19] = Preemergence, 500 g ai/ha, 0 to 100 scale where 0 is no effect and 100 is complete control
[20] = Postemergence, 31 g ai/ha, scale 0 to 100 (0 no effect, 100 complete control)
[21] = Postemergence, 62 g ai/ha, scale 0 to 100, 0 no effect, 100 complete control
[22] = Postemergence, 125 g ai/ha, scale 0 to 100, 0 no effect, 100 complete control
[23] = Preemergence, 16 g ai/ha, scale 0 to 100 (0 no effect, 100 complete control)
[24] = Preemergence, 31 g ai/ha, scale 0 to 100 (0 no effect, 100 complete control)
[25] = Preemergence, 62 g ai/ha, scale 0 to 100 (0 no effect, 100 complete control)

Clc1cnc(Oc2ccccc2-c2cc(C3CC3)on2)nc1 [Compound 183]
85: Plant response rating, Lambsquarters [12, 24]
50: Plant response rating (scale 0 to 100), Ryegrass, Italian ([10]; Preemergence, 125 g ai/ha) | Plant response rating, Galium [14, 23] | Plant response rating, Galium [14, 24]
5: Plant response rating, Morningglory [6, 25] | Plant response rating (scale 0 to 100), Nutsedge, Yellow ([8]; Postemergence, 16 g ai/ha) | Nutsedge, Yellow plant response rating [8, 20] | Nutsedge, Yellow plant response rating [8, 21] | Plant response rating, Nutsedge, Yellow [8, 22] | Plant response rating (scale 0 to 100), Nutsedge, Yellow ([8]; Preemergence, 125 g ai/ha) | Plant response rating (scale 0 to 100), Corn (corn (Zea mays) [9]; Preemergence, 125 g ai/ha) | Ryegrass, Italian plant response rating [10, 21] | Plant response rating (scale 0 to 100), Wheat ([11]; Postemergence, 16 g ai/ha) | Plant response rating (scale 0 to 100), Crabgrass, Large ([13]; Postemergence, 16 g ai/ha) | Crabgrass, Large plant response rating [13, 20] | Plant response rating, Crabgrass, Large [13, 21] | Plant response rating, Crabgrass, Large [13, 23]
95: Plant response rating, Galium [14, 21] | Plant response rating, Galium [14, 22] | Plant response rating (scale 0 to 100), Galium ([14]; Preemergence, 125 g ai/ha) | Plant response rating, Galium [14, 25] | Plant response rating, Waterhemp [15, 25]
80: Plant response rating, Foxtail, Giant [2, 17] | Foxtail, Giant plant response rating [2, 18] | Plant response rating, Barnyardgrass [5, 19] | Plant response rating, Lambsquarters [12, 23] | Plant response rating (scale 0 to 100), Soybean (soybean (Glycine max); Preemergence, 125 g ai/ha) | Plant response rating (scale 0 to 100), Waterhemp ([15]; Postemergence, 16 g ai/ha) | Waterhemp plant response rating [15, 20]
55: Soybean plant response rating (soybean (Glycine max); [20])
0: Plant response rating, Morningglory [6, 23] | Plant response rating, Morningglory [6, 24] | Plant response rating, Ragweed [7, 23] | Plant response rating, Ragweed [7, 24] | Plant response rating, Ragweed [7, 25] | Plant response rating, Nutsedge, Yellow [8, 23] | Plant response rating, Nutsedge, Yellow [8, 24] | Plant response rating, Nutsedge, Yellow [8, 25] | Plant response rating, Corn (corn (Zea mays) [9]; [23]) | Plant response rating, Corn (corn (Zea mays) [9]; [24]) | Plant response rating, Corn (corn (Zea mays) [9]; [25]) | Plant response rating (scale 0 to 100), Ryegrass, Italian ([10]; Postemergence, 16 g ai/ha) | Ryegrass, Italian plant response rating [10, 20] | Plant response rating, Ryegrass, Italian [10, 23] | Plant response rating, Ryegrass, Italian [10, 24] | Plant response rating (scale 0 to 100), Wheat ([11]; Preemergence, 125 g ai/ha) | Plant response rating, Wheat [11, 23] | Plant response rating, Wheat [11, 24] | Plant response rating, Wheat [11, 25] | Plant response rating, Soybean (soybean (Glycine max); [23])
60: Plant response rating, Wheat [1, 17] | Plant response rating, Foxtail, Giant [2, 16] | Ragweed plant response rating [7, 21]
100: Plant response rating, Pigweed [4, 16] | Plant response rating, Pigweed [4, 17] | Plant response rating, Pigweed [4, 19] | Plant response rating (scale 0 to 100), Lambsquarters ([12]; Preemergence, 125 g ai/ha) | Plant response rating (scale 0 to 100), Crabgrass, Large ([13]; Preemergence, 125 g ai/ha) | Plant response rating (scale 0 to 100), Waterhemp ([15]; Preemergence, 125 g ai/ha) | Plant response rating, Waterhemp [15, 24]
65: Plant response rating (scale 0 to 100), Morningglory ([6]; Postemergence, 16 g ai/ha) | Plant response rating, Ragweed [7, 22] | Lambsquarters plant response rating [12, 20] | Lambsquarters plant response rating [12, 21] | Plant response rating (scale 0 to 100), Soybean (soybean (Glycine max); Postemergence, 16 g ai/ha) | Plant response rating (scale 0 to 100), Galium ([14]; Postemergence, 16 g ai/ha) | Galium plant response rating [14, 20]
15: Plant response rating (scale 0 to 100), Ragweed ([7]; Postemergence, 16 g ai/ha) | Corn plant response rating (corn (Zea mays) [9]; [20]) | Plant response rating, Corn (corn (Zea mays) [9]; [21]) | Plant response rating, Ryegrass, Italian [10, 25]
40: Plant response rating, Barnyardgrass [5, 16] | Plant response rating (scale 0 to 100), Morningglory ([6]; Preemergence, 125 g ai/ha)
75: Morningglory plant response rating [6, 20] | Plant response rating, Lambsquarters [12, 22] | Soybean plant response rating (soybean (Glycine max); [21]) | Waterhemp plant response rating [15, 21]
98: Plant response rating, Crabgrass, Large [13, 25] | Plant response rating, Waterhemp [15, 22]
35: Ragweed plant response rating [7, 20] | Plant response rating (scale 0 to 100), Lambsquarters ([12]; Postemergence, 16 g ai/ha) | Plant response rating, Soybean (soybean (Glycine max); [25])
90: Plant response rating, Foxtail, Giant [2, 19] | Pigweed plant response rating [4, 18] | Morningglory plant response rating [6, 21] | Plant response rating, Morningglory [6, 22] | Plant response rating, Lambsquarters [12, 25] | Plant response rating, Soybean (soybean (Glycine max); [22])
20: Plant response rating, Corn (corn (Zea mays) [9]; [22]) | Wheat plant response rating [11, 20]
70: Plant response rating, Barnyardgrass [5, 17] | Plant response rating, Crabgrass, Large [13, 24]
10: Plant response rating, Wheat [1, 16] | Plant response rating, Corn (corn (Zea mays) [3]; [16]) | Plant response rating (scale 0 to 100), Ragweed ([7]; Preemergence, 125 g ai/ha) | Plant response rating (scale 0 to 100), Corn (corn (Zea mays) [9]; Postemergence, 16 g ai/ha) | Plant response rating, Ryegrass, Italian [10, 22] | Plant response rating, Soybean (soybean (Glycine max); [24]) | Plant response rating, Crabgrass, Large [13, 22] | Plant response rating, Waterhemp [15, 23]
30: Plant response rating, Corn (corn (Zea mays) [3]; [17]) | Barnyardgrass plant response rating [5, 18] | Wheat plant response rating [11, 21] | Plant response rating, Wheat [11, 22]

Clc1cnc(Oc2ccccc2-c2ccon2)nc1 [Compound 185]
35: Soybean plant response rating (soybean (Glycine max); [21])
70: Plant response rating, Foxtail, Giant [2, 17] | Plant response rating, Barnyardgrass [5, 19]
40: Plant response rating, Barnyardgrass [5, 17]
0: Plant response rating, Wheat [1, 16] | Plant response rating, Wheat [1, 17] | Plant response rating, Corn (corn (Zea mays) [3]; [16]) | Plant response rating (scale 0 to 100), Morningglory ([6]; Postemergence, 16 g ai/ha) | Plant response rating (scale 0 to 100), Nutsedge, Yellow ([8]; Postemergence, 16 g ai/ha) | Nutsedge, Yellow plant response rating [8, 20] | Nutsedge, Yellow plant response rating [8, 21] | Plant response rating (scale 0 to 100), Corn (corn (Zea mays) [9]; Postemergence, 16 g ai/ha) | Corn plant response rating (corn (Zea mays) [9]; [20]) | Plant response rating (scale 0 to 100), Ryegrass, Italian ([10]; Postemergence, 16 g ai/ha) | Ryegrass, Italian plant response rating [10, 20] | Ryegrass, Italian plant response rating [10, 21] | Plant response rating, Ryegrass, Italian [10, 22] | Plant response rating (scale 0 to 100), Wheat ([11]; Postemergence, 16 g ai/ha) | Wheat plant response rating [11, 20] | Wheat plant response rating [11, 21] | Plant response rating, Wheat [11, 22] | Plant response rating (scale 0 to 100), Crabgrass, Large ([13]; Postemergence, 16 g ai/ha) | Crabgrass, Large plant response rating [13, 20] | Plant response rating (scale 0 to 100), Galium ([14]; Postemergence, 16 g ai/ha) | Galium plant response rating [14, 20]
20: Barnyardgrass plant response rating [5, 18] | Ragweed plant response rating [7, 20] | Plant response rating, Lambsquarters [12, 22]
90: Plant response rating, Foxtail, Giant [2, 19] | Plant response rating, Pigweed [4, 16] | Pigweed plant response rating [4, 18]
25: Morningglory plant response rating [6, 20] | Plant response rating, Ragweed [7, 22] | Waterhemp plant response rating [15, 20] | Waterhemp plant response rating [15, 21]
100: Plant response rating, Pigweed [4, 17] | Plant response rating, Pigweed [4, 19]
45: Plant response rating, Soybean (soybean (Glycine max); [22])
15: Ragweed plant response rating [7, 21] | Lambsquarters plant response rating [12, 21] | Plant response rating (scale 0 to 100), Soybean (soybean (Glycine max); Postemergence, 16 g ai/ha)
5: Plant response rating, Corn (corn (Zea mays) [9]; [21]) | Plant response rating, Corn (corn (Zea mays) [9]; [22]) | Plant response rating, Galium [14, 21] | Plant response rating, Galium [14, 22] | Plant response rating (scale 0 to 100), Waterhemp ([15]; Postemergence, 16 g ai/ha)
10: Plant response rating, Foxtail, Giant [2, 16] | Plant response rating, Corn (corn (Zea mays) [3]; [17]) | Plant response rating, Barnyardgrass [5, 16] | Morningglory plant response rating [6, 21] | Plant response rating (scale 0 to 100), Ragweed ([7]; Postemergence, 16 g ai/ha) | Plant response rating (scale 0 to 100), Lambsquarters ([12]; Postemergence, 16 g ai/ha) | Lambsquarters plant response rating [12, 20] | Plant response rating, Crabgrass, Large [13, 21] | Plant response rating, Crabgrass, Large [13, 22]
65: Plant response rating, Morningglory [6, 22]
30: Foxtail, Giant plant response rating [2, 18] | Plant response rating, Nutsedge, Yellow [8, 22] | Soybean plant response rating (soybean (Glycine max); [20]) | Plant response rating, Waterhemp [15, 22]
